In patent publication US5821046A, “RNA oligonucleotides that bind HIV tat protein” (RiboTargets Holdings PLC, priority 1990, dated 1998):
Entries after “also recorded” stand apart in the source; their conditions may differ. Read-outs that look alike come from different tables or passages of the source.

Experiments:
HIV-1 tat protein [1] = assay: competition filter binding assay, mutant TAR transcripts against labelled HIV-1 TAR RNA (FIG. 7, Table 1); conditions: 20 nM TAR RNA, 40 nM tat protein; for IC50: read-out: D1/2 (concentration of competitor RNA that reduces binding of HIV-1 tat to HIV-1 TAR RNA to 50%)
Protocol: Binding reactions (500 ul) were set up on ice and contained 80 pM ^32 P-labeled TAR RNA (17,600 dpm, 200 uCi/n mol) and unlabeled TAR RNA to give a final concentration of 20 nM, 0.5 ug calf thymus DNA, 0.2 ug yeast tRNA, 40 units RNAsin (Promega), 50 mM Tris HCl and 20 mM KCl. After addition of competitor RNA, binding was initiated by addition of HIV-1 tat protein to a final concentration of 400 ng/ml (40 nM). The binding reaction mixtures were then filtered under reduced pressure through pre-washed nitrocellulose filters (Millipore 0.45 uM pore size) and filters were dried and counted by liquid scintillation counting.
The fraction of^32 P-labeled TAR RNA bound was plotted against the final concentration of competitor RNA. In these experiments reactions included 20 nM TAR and 40 nM tat protein and increasing amounts of unlabeled competitor RNA from 40 nm to 6 uM. […] In theory, 40 nM tat will bind 50% of the input TAR RNA (D1/2) when the total TAR RNA concentration is 56 nM.
For competition experiments, binding reactions (500 ul) were set up on ice and contained 80 pM ^32 P-labeled TAR RNA (17,600 dpm, 200 uCi/n mol) and unlabeled TAR RNA to give a final concentration of 20 nM, 0.5 ug calf thymus DNA, 0.2 ug yeast TRNA, 40 units RNAsin (Promega), 50 mM Tris-HCl pH 7.9 and 20 mM KCl. After addition of 0 to 6 uM competitor RNA, binding was initiated by addition of HIV- 1 tat protein to a final concentration of 400 ng/mi (40 nM). The binding reaction mixtures were then filtered under reduced pressure through pre-washed nitrocellulose filters (Millipore 0.45 u pore size) and filters were dried and counted by liquid scintillation counting.
KRel is the ratio of the D1/2 values for HIV-1 TAR and competitor RNA.

HIV-1 tat protein [2] = format: binding; conditions: 32P-labeled RNA transcript, 0 to 600 ng tat
Protocol: i) Gel retardation assays (FIG. 6) Method RNA transcripts were prepared by transcription with either T3 or T7 RNA polymerases of TAR regions residues +1 to +57, cloned between the HindIII and EcoRI sites of the Bluescribe M13+expression vector (Stratagene). RNA transcripts corresponding to HIV-1 TAR [SEQ ID NO: 1], SSA [SEQ ID NO: 3], SAA and SAS [SEQ ID NO: 5] were synthesized from clones linearized with EcoRI and transcribed with T3 RNA polymerase. RNA transcripts corresponding to the antisense HIV-1 TAR […], AAS , ASS [SEQ ID NO: 4], and ASA (not shown) sequences were prepared from the same plasmids linearized with HindIII and transcribed using T7 RNA polymerase. All other RNA molecules were synthesized using T3 RNA polymerase following EcoRI cleavage of the plasmid vector. The RNA products each carry 13 nucleotides of vector sequence at their 5' end and four nucleotides at their 3' ends. […] Transcription mixtures contained 1 ug linearized plasmid, 40 mM Tris-HCl pH 8.0, 10 mM MgCl 2, 2 mM Spermidine-HCl, 50 mM NaCl, 100 uM each ribonucleotide triphosphate, 40 uCi (alpha-^32 P) UTP (410 Ci/m mol) and 10 units of RNA polymerase in a final volume of 30 ul and were incubated at 37° C. for 30 minutes. After phenol extraction and precipitation from ethanol the RNA was purified from a 9% polyacrylamide denaturing gel. The specific activity of the RNA product was determined and appropriate amounts were used in binding assays. Binding reaction mixtures (1 5ul) contained 1 ng of uniformly labeled RNA probe, 0.5 ug calf thymus DNA, 0.2 ug yeast TRNA, 40 units RNAsin (Promega), 50 mM Tris-HCl and 20 mM KCl and 0 to 600 ng tat protein, prepared from E. coli beta-galactosidase-tat fusion proteins, as described previously (6). After incubation at either 30° C. or 4° C. for 10-20 minutes, the reaction mixtures were applied to a 6% non-denaturing polyacrylamide gel (Acrylamide: Bis, 40:0.5) in 3.3 mM sodium acetate, 6.7 mM Tris (adjusted to pH 7.9 with HCl). The gel buffer was recirculated during electrophoresis at 35 mA for approximately 2 hours at room temperature. Gels were dried and exposed to X-ray film at -80° C. using intensifying screens.

[3] = test system: tat-dependent promoter activity of viral LTR carrying the TAR sequence; assay: trans-activation CAT assay, HeLa cells cotransfected with LTR-CAT test plasmid and tat expression plasmid; format: cell-based; conditions: HeLa cells cotransfected with tat plasmid
From the text: If tat binding to TAR is necessary for trans-activation, then viral LTRs carrying TAR sequences with low affinities for tat should always have reduced tat-dependent promoter activity in vivo. Site-directed mutagenesis experiments on TAR have shown that trans-activation requires sequences in both the U-rich bulge (10, 11) and the loop sequence (12, 27, 28). These observations have now been extended, using TAR mutations with known affinities for tat in transfection experiments, the results of which are shown in FIG. 8. The experiments used either HeLa cells (FIG. 8a-d) or a constitutive producer of tat, HeLa/C63/tat cells (FIG. 8e-f).
The TAR sequences depicted in FIG. 3 [SEQ ID NO: 1-11] were introduced into a test plasmid, pD5-3-3, which carries a LTR and approximately 300 bases of 5' flanking sequences derived from the infectious proviral clone NL4 (29). The bacterial chloramphenicol acetyltransferase (CAT) gene and SV40 intron and terminator sequence from pSV2-CAT (30) was inserted downstream of TAR by cloning into the HindIII site at +77. Trans-activation was measured either by cotransfection of HeLa cells with the test plasmids and the tat expression plasmid pC63-4-1 (6) (panels a-d in […]), or by transfection of the test plasmids alone into HeLa/C63/tat (clone 9) cells (panels e-h). […]

[4] = test system: transactivation by tat (CAT reporter plasmid D5-3-3); assay: transactivation in vivo, altered TAR sequences in CAT reporter plasmid D5-3-3 (Tables 2 and 3); format: cell-based
Protocol: The TAR sequences depicted in FIG. 3 [SEQ ID NO: 1-11] were introduced into a test plasmid, pD5-3-3, which carries a LTR and approximately 300 bases of 5' flanking sequences derived from the infectious proviral clone NL4 (29). The bacterial chloramphenicol acetyltransferase (CAT) gene and SV40 intron and terminator sequence from pSV2-CAT (30) was inserted downstream of TAR by cloning into the HindIII site at +77. Trans-activation was measured either by cotransfection of HeLa cells with the test plasmids and the tat expression plasmid pC63-4-1 (6) (panels a-d in FIG. 10), or by transfection of the test plasmids alone into HeLa/C63/tat (clone 9) cells (panels e-h).
In these experiments, cells were plated at a density of 3×10^5 in a T25 flask and transfected by the calcium phosphate method (31). […] To ensure that CAT activity was measured in the linear range of the assay (30), at less than 50% conversion of chloramphenicol in its acetylated forms, for each transfection, three different aliquots containing from 5 to 70 ul extract were assayed for CAT activity. […] Reaction products were extracted with ethylacetate, separated by thin layer chromatography on silica plates and bands were counted in scintillation fluid to calculate the chloramphenicol conversion efficiency per 10 ul of extract. […]

## G to U (loop): TAR RNA in which residues 32-34 are changed to uridine (U) (GGGUCUCUCUGGUUAGACCAGAUUUGAGCCUUUUAGCUCUCUGGCUAACUAGGGAACCC; RNA, backbone not given here)
HIV-1 tat protein [1]
  KRel (ratio of D1/2 values for HIV-1 TAR and competitor RNA): 0.97
  IC50: 0.066 µM
HIV-1 tat protein [2]
  complex formation with tat in gel retardation assay: discrete complex formation

## ASS: anti-sense lower stem, sense upper stem and loop sequences (GGGUUCCCUAGUUAGACCAGAUUUGAGCCUGGGAGCUCUCUGGCUAACCAGAGAGACCC; chemistry not given here)
HIV-1 tat protein [2]
  complex formation with tat in gel retardation assay: discrete complex formation

## SSA: sense stem, antisense loop sequence (GGGUCUCUCUGGUUAGACCAGAUUUGAGCUCCCAGGCUCUCUGGCUAACUAGGGAACCC; chemistry not given here)
HIV-1 tat protein [2]
  complex formation with tat in gel retardation assay: discrete complex formation

## delta U (bulge): TAR RNA in which residues 23-25 are deleted (GGGUCUCUCUGGUUAGACCAGAGAGCCUGGGAGCUCUCUGGCUAACUAGGGAACCC; RNA, backbone not given here)
HIV-1 tat protein [1]
  KRel (ratio of D1/2 values for HIV-1 TAR and competitor RNA): 0.15
  IC50: 0.42 µM
HIV-1 tat protein [1]; listed as SEQ ID NO: 8
  IC50: 0.29 µM
HIV-1 tat protein [2]; listed as SEQ ID NO: 8
  complex formation with tat in gel retardation assay: abolished tat binding
HIV-1 tat protein [2]; listed as delta U3 (bulge)
  complex formation with tat in gel retardation assay: No complexes were formed

## G28 to C28: TAR point mutation expected to disrupt the top of the TAR stem/loop structure (GGGUCUCUCUGGUUAGACCAGAUUUGACCCUGGGAGCUCUCUGGCUAACUAGGGAACCC; chemistry not given here)
[3]
  trans-activation phenotype: defective phenotype
HIV-1 tat protein [1]
  KRel (ratio of D1/2 values for HIV-1 TAR and competitor RNA): 0.09
  IC50: 0.68 µM
HIV-1 tat protein [2]
  complex formation with tat in gel retardation assay: failed to bind to tat

## SAS: anti-sense upper stem flanked by sense lower stem and loop sequences (GGGUCUCUCUGGUUAGCCAGAGAGCCUGGGAGCUCAAAUCUGGUCUAACUAGGGAACCC; chemistry not given here)
HIV-1 tat protein [2]
  complex formation with tat in gel retardation assay: No complexes were formed; also recorded: fail to form complexes

## HIV-1 TAR (UUU): full length HIV-1 TAR RNA of 59 residues prepared by transcription, wild type, UUU bulge (GGGUCUCUCUGGUUAGACCAGAUUUGAGCCUGGGAGCUCUCUGGCUAACUAGGGAACCC; unmodified RNA) [reference compound]
HIV-1 tat protein [1]
  KRel (ratio of D1/2 values for HIV-1 TAR and competitor RNA): 1.00
  IC50: 0.064 µM
HIV-1 tat protein [2]
  complex formation with tat in gel retardation assay: discrete complex formation
[4]; Table 2, mutations in the U-rich bulge
  Units CAT activity/500 ng plasmid: 14,400 Units CAT activity/500 ng plas
[4]; Table 3, mutations in the stem surrounding the U-rich bulge
  Units CAT activity/500 ng plasmid: 5,600 Units CAT activity/500 ng plas
